US11535597B2, “Photoreactive ligands and uses thereof” (The Scripps Research Institute, priority 2017, dated 2022)

System: proteins in HEK293T cells
Experiment: MS-based mapping of FFF probe-modified peptides (isoTOP, sites of labeling)
Type: binding, human
Method in brief: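 Live cells treated with fragment probes (200-250 μM) in serum-free DMEM, with or without competitor ligands. Proteomes clicked to light/heavy biotin-TEV-azide, streptavidin-enriched, trypsin- then TEV-digested; probe-modified peptides identified by LC-MS/MS with any residue allowed as modified site, isoTOP ratios quantified by CIMAGE.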

SMILES: C#CCCC1(CCC(=O)NC23CC4CC(CC(C4)C2)C3)N=N1 [probe 14, N-((3s,5s,7s)-Adamantan-1-yl)-3-(3-(but-3-yn-1-yl)-3H-diazirin-3-yl)propanamide]
- Labeled Peptide of HLA-A HLAC class I histocompatibility antigen, A-2 alpha (Accession P01892, residues of probe-labeled peptide, family Uncategorized): 46-59
- Labeled Peptide of HMOX2 Heme oxygenase 2 (Accession P30519 (r933 prints P03519), residues of probe-labeled peptide, family Enzymes): 69-87
- Labeled Peptide of GHITM Growth hormone-inducible transmembrane protein (Accession Q9H3K2, residues of probe-labeled peptide, family Uncategorized): 218-240
- Labeled Peptide of GOLPH3 Golgi phophoprotein 3 (Accession Q9H4A6, residues of probe-labeled peptide, family Adapter, Scaffolding, Modulator Proteins): 75-90
- Labeled Peptide of HAUS2 HAUS augmin-like complex subunit 2 (Accession Q9NVX0, residues of probe-labeled peptide, family Adapter, Scaffolding, Modulator Proteins): 173-189
- Labeled Peptide of FUBP1 Far upstream element-binding protein 1 (Accession Q96AE4, residues of probe-labeled peptide, family Transcription factors, Regulators): 593-620
- Labeled Peptide of HAUS1 HAUS augmin-like complex subunit 1 (Accession Q96CS2, residues of probe-labeled peptide, family Adapter, Scaffolding, Modulator Proteins): 94-108
- Labeled Peptide (GOLPH3 Golgi phosphoprotein 3, residues of probe-modified peptide): 75-90
- Labeled Peptide (HLA-A HLA class I histocompatibility antigen, A-2 alpha, residues of probe-modified peptide): 46-59
- Labeled Peptide (HMOX2 Heme oxygenase 2, residues of probe-modified peptide): 69-87
- Labeled Peptide (LIPA Lysosomal acid lipase (P38571), residues of the probe-labeled peptide): 255-270
- Labeled Peptide (MAN2B1 Lysosomal alpha-mannosidase (O00754), residues of the probe-labeled peptide): 291-305
- Labeled Peptide (MCFD2 (Q8NI22), residues of the probe-labeled peptide): 103-126
- Labeled Peptide (MSH2 (P43246), residues of the probe-labeled peptide): 848-871
- Labeled Peptide (MT-ND2 (P03891), residues of the probe-labeled peptide): 264-272
- Labeled Peptide (NDUFS1 (P28331), residues of the probe-labeled peptide): 312-325
- Labeled Peptide (NUP160 (Q12769), residues of the probe-labeled peptide): 638-661
- Labeled Peptide (NUP205 (Q92621), residues of the probe-labeled peptide): 1235-1252
- Labeled Peptide (NUP214 (P35658), residues of the probe-labeled peptide): 770-783
- Labeled Peptide (NUTF2 (P61970), residues of the probe-labeled peptide): 91-106
- Labeled Peptide (NXN Nucleoredoxin (Q6DKJ4), residues of the probe-labeled peptide): 384-403
- Labeled Peptide (P07384 CAPN1 Calpain-1 catalytic subunit): 175-193
- Labeled Peptide (residues) of YWHAQ 14-3-3 protein theta (P27348, peptide TAFDEAIAELDTLNEDSYK, PDB 5IQP): 194-212
- Labeled Peptide (P30519 HMOX2 Heme oxygenase 2): 69-87
- Labeled Peptide (P30520 ADSS Adenylosuccinate synthetase isozyme 2): 431-441
- Labeled Peptide (residues) of PPP1CC Serine/threonine-protein phosphatase PP1-gamma cat (P36873, peptide EIFLSQPILLELEAPLK, PDB 4UT2): 44-60
- Labeled Peptide (P48729 CSNK1A1 Casein kinase I isoform alpha): 84-106
- Labeled Peptide (residues) of RAB7A Ras-related protein Rab-7a (P51149, peptide DEFLIQASPR, PDB 1YHN): 104-113
- Labeled Peptide (P67870 CSNK2B Casein kinase II subunit beta): 112-134
- Labeled Peptide (PCNA (P12004), residues of the probe-labeled peptide): 118-138
- Labeled Peptide (Q8NI60 ADCK3 Chaperone activity of bc1 complex-like, mitochondr): 277-295
- Labeled Peptide (Q9H4A6 GOLPH3 Golgi phosphoprotein 3): 75-90
- Labeled Peptide (residues) of RUVBL2 RuyB-like 2 (Q9Y230, peptide ALESDMAPVLIMATNR, PDB 3UK6): 315-330
- Labeled Peptide (Q13867 BLMH Bleomycin hydrolase): 111-124
- Labeled Peptide (protein ADCK3 (Q8NI60), residues of probe-labeled peptide): 277-295
- Labeled Peptide (protein ADCK3 Chaperone activity of bc1 complex-like, mitochondr, residues of probe-labeled peptide): 277-295
- Labeled Peptide (protein ADSS (P30520), residues of probe-labeled peptide): 431-441
- Labeled Peptide (protein ADSS Adenylosuccinate synthetase isozyme 2, residues of probe-labeled peptide): 431-441
- Labeled Peptide (protein AGK (Q53H12), residues of probe-labeled peptide): 283-304
- Labeled Peptide (protein ALDH18A1 (P54886), residues of probe-labeled peptide): 650-662
- Labeled Peptide (protein ASNA1 (O43681), residues of probe-labeled peptide): 131-153
- Labeled Peptide (protein ATP2A2 (P16615), residues of probe-labeled peptide): 335-352
- Labeled Peptide (protein ATP2B1 (P20020), residues of probe-labeled peptide): 824-840
- Labeled Peptide (protein ATP2B4 (P23634), residues of probe-labeled peptide): 812-828
- Labeled Peptide (protein ATP5B (P06576), residues of probe-labeled peptide): 407-422
- Labeled Peptide (protein ATP6V1B2 (P21281), residues of probe-labeled peptide): 437-457
- Labeled Peptide (protein BLMH (Q13867), residues of probe-labeled peptide): 111-124
- Labeled Peptide (protein BLMH Bleomycin hydrolase, residues of probe-labeled peptide): 111-124
- Labeled Peptide (protein CALM3 Calmodulin (P62158), residues of probe-labeled peptide): 39-75
- Labeled Peptide (protein CALM3 Calmodulin, residues of probe-labeled peptide): 39-75
- Labeled Peptide (protein CAPN1 (P07384), residues of probe-labeled peptide): 175-193
- Labeled Peptide (protein CAPN1 Calpain-1 catalytic subunit, residues of probe-labeled peptide): 175-193
- Labeled Peptide (protein CCDCC51 (Q96ER9), residues of probe-labeled peptide): 86-96
- Labeled Peptide (protein CLPB Caseinolytic peptidase B protein homolog (Q9H078), residues of probe-labeled peptide): 630-650
- Labeled Peptide (protein COX15 Cytochrome coxidase assembly protein COX15 homolo (Q7KZN9), residues of probe-labeled peptide): 296-313
- Labeled Peptide (protein CSNK1A1 Casein kinase I isoform alpha (P48729), residues of probe-labeled peptide): 84-106
- Labeled Peptide (protein CSNK1A1 Casein kinase I isoform alpha, residues of probe-labeled peptide): 84-106
- Labeled Peptide (protein CSNK2B Casein kinase II subunit beta (P67870), residues of probe-labeled peptide): 112-134
- Labeled Peptide (protein CSNK2B Casein kinase II subunit beta, residues of probe-labeled peptide): 112-134
- Labeled Peptide (protein DCAF7 DDB1- and CUL4-associated factor 7 (P61962), residues of probe-labeled peptide): 82-96
- Labeled Peptide (protein FAH Fumarylacetoacetase (P16930), residues of probe-labeled peptide): 242-253
- Labeled Peptide (protein FAM114A2 Protein FAM114A2 (Q9NRY5), residues of probe-labeled peptide): 184-196
- Labeled Peptide (protein O94826 TOMM70A Mitochondrial import receptor subunit TOM70): 475-494
- Labeled Peptide (protein O96008 TOMM40 Mitochondrial import receptor subunit TOM40 homolog): 278-293
- Labeled Peptide (protein P05387 RPLP2 60S acidic ribosomal protein P2): 50-61
- Labeled Peptide (protein P31948 STIP1 Stress-induced-phosphoprotein 1): 416-429
- Labeled Peptide (protein P46977 STT3A Dolichyl-diphosphooligosaccharide--protein glycosy): 330-340
- Labeled Peptide (protein PABPC1 Polyadenylate-binding protein 1, residues of the probe-labeled peptide): 114-129
- Labeled Peptide (protein PCNA Proliferating cell nuclear antigen, residues of the probe-labeled peptide): 118-138
- Labeled Peptide (protein PCYOX1 Prenylcysteine oxidase 1 (Q9UHG3)): 37-54
- Labeled Peptide (protein PHB Prohibitin (P35232)): 241-253
- Labeled Peptide (protein PLS3 Plastin-3 (P13797)): 72-85
- Labeled Peptide (protein PPP1CB Serine/threonine-protein phosphate PP1-alpha cat (P62140)): 43-59
- Labeled Peptide (protein PPP1CC Serine/threonine-protein phosphatase PP1-gamma cat, residues of the probe-labeled peptide): 44-60
- Labeled Peptide (protein PPP1CC Serine/threonine-protein phosphate PP1-gamma cat (P36873)): 44-60
- Labeled Peptide (protein PRPF19 Pre-mRNA-processing factor 19 (Q9UMS4)): 186-196
- Labeled Peptide (protein PSMD3 26S proteasome non-ATPase regulatory subunit 3 (O43242)): 426-440
- Labeled Peptide (protein PTBP1 Polypyrimidine tract-binding protein 1 (P26599)): 219-238
- Labeled Peptide (protein Q8NBX0 SCCPDH Saccharopine dehydrogenase-like oxidoreductase): 145-167
- Labeled Peptide (protein Q8TBP6 SLC25A40 Solute carrier family 25 member 40): 136-152
- Labeled Peptide (protein Q8TCJ2 STT3B Dolichyl-diphosphooligosaccharide--protein glycosy): 692-703
- Labeled Peptide (protein Q9H2D1 SLC25A32 Mitochondrial folate transporter/carrier): 118-145
- Labeled Peptide (protein Q9H4I3 TRABD TraB domain-containing protein): 235-253
- Labeled Peptide (protein Q9H061 TMEM126A Transmembrane protein 126A): 85-105
- Labeled Peptide (protein Q9NS69 TOMM22 Mitochondrial import receptor subunit TOM22 homolog): 106-117
- Labeled Peptide (protein Q9UBX3 SLC25A10 Mitochondrial dicarboxylate carrier): 171-186
- Labeled Peptide (protein Q9Y230 RUVBL2 RuvB-like 2): 315-330
- Labeled Peptide (protein QIL1 Protein QIL1 (Q5XLP0)): 15-36
- Labeled Peptide (protein RAB7A Ras-related protein Rab-7a (P51149)): 104-113
- Labeled Peptide (protein RAB7A Ras-related protein Rab-7a, residues of the probe-labeled peptide): 104-113
- Labeled Peptide (protein RABEPK Rab9 effector protein with kelch motifs (Q7Z6M1)): 87-100
- Labeled Peptide (protein RARS Arginine--tRNA ligase, cytoplasmic (P54136)): 528-540
- Labeled Peptide (protein RARS Arginine--tRNA ligase, cytoplasmic, residues of the probe-labeled peptide): 528-540
- Labeled Peptide (protein RUVBL2 RuvB-like 2, residues of the probe-modified peptide): 315-330
- Labeled Peptide (protein TXNDC17 Thioredoxin domain-containing protein 17, residues of the probe-modified peptide): 4-17
- Labeled Peptide (protein VPS33A Vacuolar protein sorting-associated protein 33A, residues of the probe-modified peptide): 233-262
- Labeled Peptide (protein YWHAQ 14-3-3 protein theta, residues of the probe-modified peptide): 194-212
- Labeled Peptide (residues of probe-labeled peptide on VDAC3 Voltage-dependent anion-slective channel protein, Accession # Q9Y277): 164-174
- Labeled Peptide (residues of probe-labeled peptide on VMP1 Vacuole membrane protein 1, Accession # Q96GC9): 214-243
- Labeled Peptide (residues of probe-labeled peptide on VPS33A Vacuolar protein sorting-associated protein 33A, Accession # Q96AX1): 233-262
- Labeled Peptide (residues of probe-labeled peptide on VPS51 Vacuolar protein sorting-associated protein 51 hom, Accession # Q9UID3): 742-763
- Labeled Peptide (residues of probe-labeled peptide on YWHAQ 14-3-3 protein theta, Accession # P27348): 194-212
